Test system: Caco-2 monolayers (efflux transport of Rhodamine 123)
Assay: Inhibition Protocol: Rhodamine 123 transport across Caco-2 monolayers in the presence of TPGS analog
Format: cell-based
Settings: relative to Rhodamine 123 alone, TPGS analog 33 μmolar
Protocol: As used herein, the term “Inhibition Protocol” or “inhibition protocol” refers to the following test. The test is carried out using Caco-2 (C2BBe1 or HTB-37) monolayers which are known to be a good in vitro model for gastrointestinal epithelial cells. The following describes the inhibition protocol: Caco-2 cells, clone C2BBe1, from passages 48-92 are used. Cells are grown to ˜90% confluent in 75 cm^2 T-flasks with Dulbecco's modified Eagle's medium (DMEM) supplemented with 10% fetal bovine serum (FBS) and 1% non-essential amino-acids. Cells are grown at a temperature of ˜37° C. in an atmosphere of ˜85% relative humidity and ˜5% CO2. Cells are seeded on top of Transwell® inserts (pore size 0.4 μm, 1.13 cm^2) at a density of ˜60,000 cells/cm^2. […]
Rhodamine 123 (RHO) transport is assessed in absorptive (apical to basolateral, Ap→BI) and secretory (BI→Ap) directions. […]
Monolayers are agitated using an orbital shaker at ˜100±20 rpm. […] To ensure integrity of the monolayers, TEER values were measured on the day of the experiment and at the end of the experiment.
Apparent permeability (Papp) was calculated according to: Papp=(dQ/dt)*(1/A)*(1/Co)
where A (cm^2) is the nominal surface area of the monolayer and C0 (μg/mL) is the RHO concentration in the donor compartment at t=0. Relative change of Papp(cm/s)was calculated according to the equation: rel. increase/decrease=|(1−Papp(TPGS)/Papp(RHO))*100|. […]

d-α-tocopheryl polyethylene glycol succinate [TPGS 1000]
% Decrease, B to A: 73.6% | % Increase, A to B: 82.5%
